Laboratory results from patent publication US7745393B2, “Minimalist bZIP proteins and uses thereof” (priority 2005, dated 2010).
Entries after “also recorded” stand apart in the source; their conditions may differ.

B1: Arnt1-C/EBP: Arnt basic region, RIR linker, C/EBP leucine zipper; SEQ ID No. 7 (protein)
chain: KFLRCDDDQMSNDKERFARENHSEIERRRRNKMTAYITERIRLEQKVLELTSDNDRLRKRVEQLSRELDTL
modifications: fusion protein
B2: Arnt-C/EBP: Arnt basic region and a portion of Helix 1 directly fused to the C/EBP zipper (protein)
chain: DQMSNDKERFARENHSEIERRRRNKMTAYITELSRIRLEQKVLELTSDNDRLRKRVEQLSRELDTL
modifications: Arnt-C/EBP
notes: Arnt basic region and a portion of Helix 1 directly fused to the C/EBP zipper

What was measured:
E-box [1] = conditions: high-salt conditions, in vitro; cited from earlier work
E-box [2] = assay: LacZ ONPG liquid assay (β-galactosidase); type: cell-based, S. cerevisiae; conditions: for β-galactosidase activity: ONPG assay, FIG. 8, averages of nine to twelve measurements
Source text: The measurement of binding of the minimalist bZIP proteins to the target DNA sequence is a LacZ-based quantitative assay using ortho-nitrophenyl-beta-galactoside as calorimetric substrate (ONPG). Minimalist bZIP proteins with ONPG values exceeding 10 beta-galactosidase units are considered to be good binders to the target DNA sequence. Minimalist bZIP proteins with ONPG values below 10 beta-galactosidase units are ideal for selection and evolution,
(§1) A modified yeast one-hybrid system (Y1H) (Wang MM and Reed RR. 1993, Nature, 364, 121) was used to examine the E-box binding activity of the hybrids in vivo. Two S. cerevisiae reporter strains were constructed: four tandem copies of the E-box were cloned upstream of either the his3 or LacZ reporters. In the his3 assay, the His3 protein is expressed upon binding of our hybrids at E-box, allowing yeast to survive under histidine auxotrophy (FIG. 6). Surviving colonies are visualized on plates with media lacking histidine and in the presence of 3-aminotriazole (3-AT), a competitive inhibitor of His3 that reduces background growth. Yeast was plated on 10-60 mM 3-AT as a qualitative test of binding strength to E-box. Hybrids were also tested by two assays based on the LacZ reporter, which encodes β-galactosidase. (Serebriiskii, I. G. and Golemis, E. A. 2000 Anal. Biochem. 285, 1. The qualitative colony-lift filter assay uses X-gal as substrate for calorimetric visualization of protein-DNA binding (FIG. 7). Positives display vivid blue color. The ortho-nitrophenyl-β-galactoside (ONPG) liquid assay is quantitative (FIG. 8). However, this assay is not sensitive enough to quantify weak interactions accurately, (Mökli, N. and Auerbach, D. 2004 BioTechniques 36, 872) so the far more sensitive colony-lift assay is also typically performed.

E-box [3] = assay: LacZ colony-lift filter assay (X-gal); type: cell-based, S. cerevisiae; design: key to Colony-lift: +: blue; −: white; conditions: for Colony-lift: LacZ-based X-gal colony-lift filter assay, blue/white screen; for colony-lift filter assay binding (color): X-gal substrate
Source text: as §1

E-box target, 5′-CACGTG = assay: yeast one-hybrid his3 reporter assay (colony growth on SD/-His/-Leu with 3-AT); type: cell-based, Saccharomyces cerevisiae; design: key to his3: +: positive; −: negative; conditions: for his3 assay binding/colony growth: 30° C.; for binding to E-box / colony growth in yeast one-hybrid assay: 3-AT concentration not stated; for his3: positive/negative colony growth in yeast cells on plates
Source text: A reporter strain was constructed such that the E-box target, 5′-CACGTG, resides upstream of the HIS3 reporter gene. The bHLH/bZIP hybrid was fused to the GAL4 transcriptional activation domain so that if a hybrid binds the E-box, the HIS3 protein will be expressed, thus allowing yeast to survive under conditions of histidine auxotrophy. Four tandem copies of the E-box (as shown in Table 9) were cloned into the pHISi-1 integrating reporter vector (Matchmaker One-Hybrid System, Clontech). After insertion of the E-box insert, the pHISi-1 vector was linearized and incorporated into the yeast genome by homologous recombination to generate Saccharomyces cerevisiae YM4271[pHISi-1/E-box]. To assess background due to the reporter, 3-aminotriazole (3-AT) was used as a competitive inhibitor of the HIS3 protein. Because it is possible that the reporter may be activated by endogenous factors, YM4271[pHISi-1/E-box] was subjected to titration with varying amounts of 3-AT to measure the concentration of 3-AT sufficient for suppression of background growth.
Transformation of the yeast cells was performed by electroporation. Following electroporation, cells were plated on minimal selective medium lacking leucine and histidine with the appropriate amount of 3-AT to suppress background.
as §1

| Molecule | ONPG (E-box [2]; Table 11) | Colony-lift (E-box [3]) | colony-lift filter assay binding (color) (E-box [3]) | his3 assay binding/colony growth (E-box target, 5′-CACGTG; 10 mM 3-AT) | binding to E-box / colony growth in yeast one-hybrid assay (E-box target, 5′-CACGTG) | his3 (E-box target, 5′-CACGTG) | β-galactosidase activity (E-box [2]) | other results |
| --- | --- | --- | --- | --- | --- | --- | --- | --- |
| Arnt bHLH: Arnt bHLH alone (56 amino acids), literature, Huffman et al. 2001 |  |  |  |  |  |  |  | Kd (E-box [1]): 0.0562 ± 0.0117 µM |
| Max-C/EBP: Max basic region, RIR linker, C/EBP leucine zipper; SEQ ID NO. 52, same sequence as SEQ ID No. 1 (ADKRAHHNALERKRRDHIKDSFHSRIRLEQKVLELTSDNDRLRKRVEQLSRELDTL; fusion protein) | 2.2 ± 0.2 β-galactosidase units | − | no binding (clear) | no binding | undetectable | − |  | his3 assay binding/colony growth (E-box target, 5′-CACGTG; 10 mM 3-AT, listed as Max/C-EBP): Binding undetectable |
| native Max bHLHZ: native Max bHLHZ (residues 22-113, 92 amino acids), positive control | 26.4 ± 7.7 β-galactosidase units | + |  |  |  | + | 26.4±7.7 | ONPG (E-box [2]; Table 12): 26.41 ± 7.73; colony-lift filter assay binding (color) (E-box [3]; listed as Max bHLHZ): intense blue color; also recorded: positive binding (dark blue); colony-lift filter assay binding (color) (E-box [3]; listed as Native Max bHLHZ): positive binding (dark blue); his3 assay binding/colony growth (E-box target, 5′-CACGTG; 20 mM 3-AT): strong binding/colony growth; his3 assay binding/colony growth (E-box target, 5′-CACGTG; 60 mM 3-AT, listed as Max bHLHZ): good colony growth; his3 assay binding/colony growth (E-box target, 5′-CACGTG; 60 mM 3-AT, listed as Native Max bHLHZ): strong binding/colony growth |
| B1 |  |  |  | able to bind to the E-box target DNA sequence |  |  |  |  |
| B2 |  |  | extremely pale color; also recorded: no binding (clear) |  | no colony growth |  | 2.9±0.3 |  |
